# Assay results taken from US5872126A, “Methods and compositions for treating preterm labor” (priority 1997, dated 1999).
# System: parturition in the rat
# Assay: Parturition after termination of drug treatment on GD 17, 19 or 20 (Example 2)
# Assay type: in vivo, Sprague-Dawley rat
# Details: 20 mg/kg/day; for Mean Length of Gestation ± SD: in days (unit assumed)
# Excerpt: In order to determine if termination of drug treatment with the 5α-reductase type 1 inhibitor 3-oxo-4-aza-4,7β-dimethyl-16β-(4-chlorophenoxy)-5α-androstane ("test compound") on GD 17, 19 or 20 would allow the 3-oxo-4-aza-4,7β-dimethyl-16β-(4-chlorophenoxy)-5α-androstane-treated pregnant females to initiate and complete parturition, Sprague-Dawley rats (Charles River Laboratories, Raleigh, N.C.) were approximately ten weeks of age and weighted 223 to 276 grams on Gestation Day 0 (GD 0, the day of finding copulatory plugs). The design of the study is as described below. All animals were housed and fed as described in Example 1, with the exception of a 1 hour transient electrical failure, during which power outage dim illumination was provided by emergency backup lighting.
# A dose of 20 mg/kg/day of the test compound was given once daily by oral gavage to the three treatment groups of 10 mated females each, designated by the treatment interval (GD 6-17, GD 6-19, and GD 6-20), at a dose volume of 5 mL/kg. (GD 6-17 received treatment from Gestational Day 6 through 17, etc.) An additional group of 10 females similarly received the vehicle (0.5% methylcellulose in deionized water with 0.02% sodium lauryl sulfate (SLS)) on GD 6-20 and served as the control.
structure (smiles),measurement,setting,value
"C[C@H]1C[C@H]2N(C)C(=O)CC[C@]2(C)[C@H]2CC[C@]3(C)C[C@@H](Oc4ccc(Cl)cc4)C[C@H]3[C@H]12 [test compound, 3-oxo-4-aza-4,7β-dimethyl-16β-(4-chlorophenoxy)-5α-androstane]",length of gestation relative to controls,all dosing intervals,increases in the length of gestation
same,number of pregnant females completing parturition,"dosed GD 6-17, delivery day GD 22.0",3
same,number of pregnant females completing parturition,"dosed GD 6-17, delivery day GD 22.5",1
same,number of pregnant females completing parturition,"dosed GD 6-17, delivery day GD 23.0",6
same,Mean Length of Gestation ± SD,dosed GD 6-17,22.6 ± 0.5
same,Sacrificed GD 24 due to failure to initiate or complete parturition,dosed GD 6-19,1
same,pregnant females that failed to initiate or complete delivery (fraction),dosed GD 6-19,1/10
same,number of pregnant females completing parturition,"dosed GD 6-19, delivery day GD 22.0",1
same,number of pregnant females completing parturition,"dosed GD 6-19, delivery day GD 22.5",3
same,number of pregnant females completing parturition,"dosed GD 6-19, delivery day GD 23.0",4
same,number of pregnant females completing parturition,"dosed GD 6-19, delivery day GD 23.5",1
same,Mean Length of Gestation ± SD,dosed GD 6-19,22.8 ± 0.4
same,Sacrificed GD 24 due to failure to initiate or complete parturition,dosed GD 6-20,2
same,pregnant females that failed to initiate or complete delivery (fraction),dosed GD 6-20,2/9
same,number of pregnant females completing parturition,"dosed GD 6-20, delivery day GD 23.0",5
same,number of pregnant females completing parturition,"dosed GD 6-20, delivery day GD 24",2
same,Mean Length of Gestation ± SD,dosed GD 6-20,23.3 ± 0.5
